Laboratory results taken from patent US12410163B2, “Compounds as GLP-IR agonists” (Terns Pharmaceuticals, Inc., priority 2022, dated 2025).

System: human hepatocytes
Assay: Metabolic stability in hepatocytes
Assay type: in vitro ADME
Details: 1 μM, 1×10^6 cells/mL, 0-240 min
How it was run: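 Cryopreserved human hepatocytes at 1×10^6 cells/mL in DMEM were exposed to 1 μM compound (0.1% DMSO) for 0–240 min at 37 °C, 5% CO2. Parent loss quantified by LC-MS/MS; t1/2 = 0.693/k and CLint = k/cell density from semi-log % remaining versus time.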

hHep t1/2: > 8 h
Structure (SMILES): N#Cc1ccc(COc2cccc(N3CCN(Cc4nc5ccc(C(=O)O)cc5n4Cc4cncs4)[C@H]4C[C@H]43)n2)c(F)c1 (single isomer, unassigned) [Compound 2, 2-((5-(6-((4-Cyano-2-fluorobenzyl)oxy)pyridin-2-yl)-2,5-diazabicyclo[4.1.0]heptan-2-yl)methyl)-1-(thiazol-5-ylmethyl)-1H-benzo[d]imidazole-6-carboxylic Acid]
